The source made the active and inactive calls. No cut-off for these calls is given here.
Legend:
[1] = cells; settings: Homo sapiens, CUTO-3
Description: Antiproliferative activity against TrK fused human CUTO-3 cells

[2] = Volume of distribution in Sprague-Dawley rat at 3 mg/kg measured up to 24 hrs by LC-MS/MS analysis; type: ADME, organism-based; settings: in vivo
[3] = Toxicity in mouse xenografted with mouse BaF3 cells transfected with ETV6-NTRK3 assessed as weight loss at 100 mg/kg, po administered once daily for 21 days and measured twice weekly; settings: in vivo, 504 h
[4] = C0 in Sprague-Dawley rat at 3 mg/kg measured up to 24 hrs by LC/MS/MS analysis; type: ADME, organism-based; settings: in vivo
[5] = Tmax in Sprague-Dawley rat at 10 mg/kg, po measured up to 24 hrs by LC-MS analysis; type: ADME, organism-based; settings: in vivo
[6] = cells; settings: Homo sapiens, MO-91
Description: Antiproliferative activity against TrK fused human MO-91 cells

[7] = test system: Mast/stem cell growth factor receptor Kit (Homo sapiens), P10721 [V560G]; assay: Inhibition of recombinant human C-Kit V560G mutant (544 to end residues) assessed as residual activity at 0.5 uM poly(Glu, Tyr) 4:1 as substrate incubated 40 mins in presence of [gamma-33ATP] by scintillation counting based radiometry assay relative to control
[8] = molecular target: Proto-oncogene tyrosine-protein kinase ROS (Homo sapiens, UniProt P08922); assay: Inhibition of recombinant human Ros1 (1883 to end residues) assessed as residual activity at 0.5 uM using KKKSPGEYVNIEFG as substrate measured after 40 mins in presence of [gamma33P]ATP by scintillation counting method relative to control
[9] = Half life in female Sprague-Dawley rat at 2 mg/kg, iv measured up to 24 hrs by LC-MS/MS analysis; type: ADME, organism-based; settings: in vivo
[10] = test system: Mast/stem cell growth factor receptor Kit (Homo sapiens), P10721 [D816H]; assay: Inhibition of recombinant human C-Kit D816H mutant (544 to end residues) assessed as residual activity at 0.5 uM poly(Glu, Tyr) 4:1 as substrate incubated 40 mins in presence of [gamma-33ATP] by scintillation counting based radiometry assay relative to control
[11] = molecular target: Receptor-interacting serine/threonine-protein kinase 2 (Homo sapiens) (UniProt O43353); assay: Inhibition of recombinant human RIPK2 (1 to 299 residues) assessed as residual activity at 0.5 uM using myelin basic protein as substrate incubated for 120 mins in presence of [gamma33P]ATP by scintillation counting based radiometry assay relative to control
Sequence of Receptor-interacting serine/threonine-protein kinase 2 (Homo sapiens) (O43353 whole entry, the tested form may be a part): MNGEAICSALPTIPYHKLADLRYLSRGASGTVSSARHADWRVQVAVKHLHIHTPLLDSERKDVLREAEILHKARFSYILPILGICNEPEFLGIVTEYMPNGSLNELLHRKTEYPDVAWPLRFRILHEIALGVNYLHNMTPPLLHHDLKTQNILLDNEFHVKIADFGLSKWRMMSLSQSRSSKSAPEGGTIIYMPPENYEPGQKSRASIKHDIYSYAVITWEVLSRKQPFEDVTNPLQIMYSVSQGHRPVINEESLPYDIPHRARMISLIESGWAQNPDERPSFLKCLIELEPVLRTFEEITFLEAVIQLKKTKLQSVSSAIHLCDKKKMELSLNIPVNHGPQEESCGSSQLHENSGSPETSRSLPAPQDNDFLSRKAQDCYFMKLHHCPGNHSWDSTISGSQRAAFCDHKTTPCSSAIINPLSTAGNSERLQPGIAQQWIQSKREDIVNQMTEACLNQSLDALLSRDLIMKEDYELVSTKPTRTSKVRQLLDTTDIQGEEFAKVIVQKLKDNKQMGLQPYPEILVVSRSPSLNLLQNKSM

[12] = Volume of distribution in male Sprague-Dawley rat at 2 mg/kg, iv measured up to 24 hrs by LC-MS/MS analysis; type: ADME, organism-based; settings: in vivo
[13] = Oral bioavailability in female Sprague-Dawley rat at 10 mg/kg measured up to 24 hrs by LC/MS/MS analysis; type: ADME, organism-based; settings: in vivo
[14] = molecular target: Vascular endothelial growth factor receptor 2 (Homo sapiens) (UniProt P35968); assay: Inhibition of human KDR (790 to end residues) assessed as residual activity at 0.5 uM using myelin basic protein as substrate after 40 mins by [gamma-33ATP] radiometric assay relative to control
Sequence of Vascular endothelial growth factor receptor 2 (Homo sapiens) (P35968 whole entry): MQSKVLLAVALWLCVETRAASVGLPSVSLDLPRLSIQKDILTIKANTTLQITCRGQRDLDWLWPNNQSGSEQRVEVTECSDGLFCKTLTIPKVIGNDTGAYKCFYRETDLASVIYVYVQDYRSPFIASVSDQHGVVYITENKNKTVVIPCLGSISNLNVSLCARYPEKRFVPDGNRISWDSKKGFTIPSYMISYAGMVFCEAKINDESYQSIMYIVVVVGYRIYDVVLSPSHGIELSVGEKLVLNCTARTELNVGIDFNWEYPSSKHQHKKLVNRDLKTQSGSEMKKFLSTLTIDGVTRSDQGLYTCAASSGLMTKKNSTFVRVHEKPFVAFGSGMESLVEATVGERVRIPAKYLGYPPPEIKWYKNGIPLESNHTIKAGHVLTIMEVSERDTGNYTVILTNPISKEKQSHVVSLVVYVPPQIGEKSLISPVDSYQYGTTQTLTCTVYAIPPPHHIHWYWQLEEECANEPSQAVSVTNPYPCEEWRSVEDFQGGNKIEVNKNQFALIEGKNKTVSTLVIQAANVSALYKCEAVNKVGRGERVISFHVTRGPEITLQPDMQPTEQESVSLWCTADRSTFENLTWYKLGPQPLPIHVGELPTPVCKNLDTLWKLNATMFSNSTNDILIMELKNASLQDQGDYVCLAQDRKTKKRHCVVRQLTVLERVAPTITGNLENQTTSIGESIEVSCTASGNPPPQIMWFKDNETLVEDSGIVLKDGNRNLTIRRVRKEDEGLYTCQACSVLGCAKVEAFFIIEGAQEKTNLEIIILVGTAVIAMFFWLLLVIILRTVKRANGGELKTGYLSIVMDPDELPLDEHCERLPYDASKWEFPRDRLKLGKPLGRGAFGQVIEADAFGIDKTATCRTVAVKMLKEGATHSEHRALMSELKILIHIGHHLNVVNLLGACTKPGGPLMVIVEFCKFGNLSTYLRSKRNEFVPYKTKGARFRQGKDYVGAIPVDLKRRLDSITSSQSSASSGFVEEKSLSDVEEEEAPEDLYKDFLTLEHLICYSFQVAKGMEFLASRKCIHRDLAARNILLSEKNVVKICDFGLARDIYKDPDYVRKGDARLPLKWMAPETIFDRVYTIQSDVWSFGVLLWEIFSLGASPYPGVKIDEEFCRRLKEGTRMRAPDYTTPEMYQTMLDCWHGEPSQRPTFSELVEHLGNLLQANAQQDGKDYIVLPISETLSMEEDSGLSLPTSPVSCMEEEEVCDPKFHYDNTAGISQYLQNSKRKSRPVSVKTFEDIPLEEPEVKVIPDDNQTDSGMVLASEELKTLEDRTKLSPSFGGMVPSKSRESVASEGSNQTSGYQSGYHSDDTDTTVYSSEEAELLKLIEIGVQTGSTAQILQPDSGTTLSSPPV

[15] = Toxicity in mouse xenografted with mouse BaF3 cells transfected with ETV6-NTRK3-G623R mutant assessed as weight loss at 20 mg/kg, po administered once daily for 21 days and measured twice weekly; settings: in vivo, 504 h
[16] = test system: BaF3; assay: Antitumor activity against mouse BaF3 cells transfected with ETV6-NTRK3 xenografted in mouse assessed as tumor growth inhibition at 5 to 20 mg/kg, po administered once daily for 21 days and measured twice weekly; settings: dose 5-20 mg/kg, time 21.0 day
[17] = molecular target: Tyrosine-protein kinase JAK1 (Homo sapiens) (UniProt P23458); assay: Inhibition of human JAK1 (866 to end residues) assessed as residual activity at 0.5 uM using GEEPLYWSFPAKKK as substrate after 40 mins by [gamma-33ATP] radiometric assay relative to control
[18] = test system: BaF3; assay: Antitumor activity against mouse BaF3 cells transfected with ETV6-NTRK3-G623R mutant xenografted in mouse assessed as tumor growth inhibition at 5 to 20 mg/kg, po administered once daily for 21 days and measured twice weekly; settings: dose 5-20 mg/kg, time 21.0 day
[19] = C0 in female Sprague-Dawley rat at 2 mg/kg, iv measured up to 24 hrs by LC/MS/MS analysis; type: ADME, organism-based; settings: in vivo
[20] = molecular target: Fibroblast growth factor receptor 3 (Homo sapiens) (UniProt P22607); assay: Inhibition of recombinant human FGFR3 (447 to 761 residues) assessed as residual activity at 0.5 uM using poly(Glu, Tyr) 4:1 as substrate at 40 mins in presence of [gamma-33ATP] by scintillation counting based radiometry assay relative to control
[21] = test system: Platelet-derived growth factor receptor alpha (Homo sapiens), P16234 [V561D]; assay: Inhibition of human PDGFRalpha V561D mutant (550 to end residues) assessed as residual activity at 0.5 uM using poly(Glu, Tyr) 4:1 as substrate measured after 40 mins in presence of [gamma33P]ATP by scintillation counting based radiometry assay relative to control
Sequence of Platelet-derived growth factor receptor alpha (Homo sapiens), P16234 [V561D] (P16234 whole entry V561D): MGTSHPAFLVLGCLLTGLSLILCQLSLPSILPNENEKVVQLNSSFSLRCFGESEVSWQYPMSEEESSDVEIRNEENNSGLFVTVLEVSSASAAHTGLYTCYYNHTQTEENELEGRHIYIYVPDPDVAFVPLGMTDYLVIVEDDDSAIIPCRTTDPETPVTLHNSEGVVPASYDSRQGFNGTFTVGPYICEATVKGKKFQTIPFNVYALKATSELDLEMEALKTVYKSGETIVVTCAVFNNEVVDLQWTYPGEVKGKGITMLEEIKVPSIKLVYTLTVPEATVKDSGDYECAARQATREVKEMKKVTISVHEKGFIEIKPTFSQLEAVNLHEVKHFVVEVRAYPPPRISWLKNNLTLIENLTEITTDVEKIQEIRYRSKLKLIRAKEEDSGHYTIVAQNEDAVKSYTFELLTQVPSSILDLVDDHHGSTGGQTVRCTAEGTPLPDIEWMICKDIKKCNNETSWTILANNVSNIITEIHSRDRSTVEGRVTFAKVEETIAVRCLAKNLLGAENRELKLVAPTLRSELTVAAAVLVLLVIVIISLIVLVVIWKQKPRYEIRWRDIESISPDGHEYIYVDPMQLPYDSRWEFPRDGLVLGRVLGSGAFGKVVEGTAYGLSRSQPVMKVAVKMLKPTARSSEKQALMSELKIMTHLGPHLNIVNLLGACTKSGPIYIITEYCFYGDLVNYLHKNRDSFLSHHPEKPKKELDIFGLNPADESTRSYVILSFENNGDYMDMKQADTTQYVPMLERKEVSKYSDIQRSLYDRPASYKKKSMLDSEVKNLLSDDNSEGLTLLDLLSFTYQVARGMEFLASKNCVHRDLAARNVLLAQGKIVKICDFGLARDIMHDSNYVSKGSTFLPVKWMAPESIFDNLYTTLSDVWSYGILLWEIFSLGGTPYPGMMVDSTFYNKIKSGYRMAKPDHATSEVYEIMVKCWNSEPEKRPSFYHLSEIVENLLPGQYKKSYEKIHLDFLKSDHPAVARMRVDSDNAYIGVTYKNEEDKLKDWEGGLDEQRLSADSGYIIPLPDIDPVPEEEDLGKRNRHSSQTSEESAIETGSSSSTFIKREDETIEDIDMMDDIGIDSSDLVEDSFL

[22] = test system: Epidermal growth factor receptor (Homo sapiens), P00533 [L861Q]; assay: Inhibition of recombinant human EGFR L861Q mutant (696 to end residues) assessed as residual activity at 0.5 uM using poly(Glu, Tyr) 4:1 as substrate at 40 mins in presence of [gamma-33ATP] by scintillation counting based radiometry assay relative to control
[23] = molecular target: Macrophage-stimulating protein receptor (Homo sapiens) (UniProt Q04912); assay: Inhibition of recombinant human Ron (983 to end residues) assessed as residual activity at 0.5 uM using GGMEDIYFEFMGGKKK as substrate incubated for 40 mins in presence of [gamma33P]ATP by scintillation counting based radiometry assay relative to control
[24] = test system: Hepatocyte growth factor receptor (Homo sapiens), P08581 [Y1248H]; assay: Inhibition of recombinant human Met Y1248H mutant (974 to end residues) assessed as residual activity at 0.5 uM using KKKGQEEEYVFIE as substrate incubated for 40 mins in presence of [gamma-33P]-ATP by scintillation counting method relative to control
[25] = molecular target: Tyrosine-protein kinase JAK3 (Homo sapiens) (UniProt P52333); assay: Inhibition of human JAK3 (781 to end residues) assessed as residual activity at 0.5 uM using GGEEEEYFELVKKKK as substrate after 40 mins by [gamma-33ATP] radiometric assay relative to control
Sequence of Tyrosine-protein kinase JAK3 (Homo sapiens) (P52333 whole entry): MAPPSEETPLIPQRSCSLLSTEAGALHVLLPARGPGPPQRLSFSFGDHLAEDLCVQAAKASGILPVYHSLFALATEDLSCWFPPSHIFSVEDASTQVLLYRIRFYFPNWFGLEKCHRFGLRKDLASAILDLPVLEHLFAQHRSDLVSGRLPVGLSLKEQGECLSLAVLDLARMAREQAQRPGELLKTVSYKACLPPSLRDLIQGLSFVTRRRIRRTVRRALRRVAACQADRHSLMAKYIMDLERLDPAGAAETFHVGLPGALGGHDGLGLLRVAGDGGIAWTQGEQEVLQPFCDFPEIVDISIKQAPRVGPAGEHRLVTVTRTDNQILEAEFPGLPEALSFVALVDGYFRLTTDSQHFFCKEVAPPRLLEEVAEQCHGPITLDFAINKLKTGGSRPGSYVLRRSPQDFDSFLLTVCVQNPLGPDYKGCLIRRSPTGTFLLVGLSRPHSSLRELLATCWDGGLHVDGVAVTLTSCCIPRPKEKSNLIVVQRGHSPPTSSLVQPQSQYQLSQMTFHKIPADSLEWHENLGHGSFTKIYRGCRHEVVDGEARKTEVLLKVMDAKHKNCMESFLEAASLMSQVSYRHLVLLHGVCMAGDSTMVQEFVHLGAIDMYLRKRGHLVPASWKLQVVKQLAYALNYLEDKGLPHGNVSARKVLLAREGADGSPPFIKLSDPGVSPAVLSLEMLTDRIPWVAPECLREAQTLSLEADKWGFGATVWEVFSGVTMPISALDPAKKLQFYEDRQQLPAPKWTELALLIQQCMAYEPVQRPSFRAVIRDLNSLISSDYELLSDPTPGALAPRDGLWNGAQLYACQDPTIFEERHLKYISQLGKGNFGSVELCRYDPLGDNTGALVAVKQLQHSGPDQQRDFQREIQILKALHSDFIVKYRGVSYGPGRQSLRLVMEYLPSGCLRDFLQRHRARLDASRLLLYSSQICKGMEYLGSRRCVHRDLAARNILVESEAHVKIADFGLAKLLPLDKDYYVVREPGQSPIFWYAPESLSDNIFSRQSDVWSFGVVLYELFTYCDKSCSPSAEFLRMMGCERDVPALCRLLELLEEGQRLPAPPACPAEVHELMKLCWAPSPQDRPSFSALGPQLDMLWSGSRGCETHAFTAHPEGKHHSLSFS

[26] = Cmax in female Sprague-Dawley rat at 10 mg/kg, po measured up to 24 hrs by LC-MS/MS analysis; type: ADME, organism-based; set-up: route oral, dose 10 mg/kg, time <=24; settings: in vivo
[27] = molecular target: Fibroblast growth factor receptor 2 (Homo sapiens) (UniProt P21802); assay: Inhibition of recombinant human FGFR2 (456 to 770 residues) assessed as residual activity at 0.5 uM using poly(Glu, Tyr) 4:1 as substrate at 40 mins in presence of [gamma-33ATP] by scintillation counting based radiometry assay relative to control
Sequence of Fibroblast growth factor receptor 2 (Homo sapiens) (P21802 22-821 limits assumed): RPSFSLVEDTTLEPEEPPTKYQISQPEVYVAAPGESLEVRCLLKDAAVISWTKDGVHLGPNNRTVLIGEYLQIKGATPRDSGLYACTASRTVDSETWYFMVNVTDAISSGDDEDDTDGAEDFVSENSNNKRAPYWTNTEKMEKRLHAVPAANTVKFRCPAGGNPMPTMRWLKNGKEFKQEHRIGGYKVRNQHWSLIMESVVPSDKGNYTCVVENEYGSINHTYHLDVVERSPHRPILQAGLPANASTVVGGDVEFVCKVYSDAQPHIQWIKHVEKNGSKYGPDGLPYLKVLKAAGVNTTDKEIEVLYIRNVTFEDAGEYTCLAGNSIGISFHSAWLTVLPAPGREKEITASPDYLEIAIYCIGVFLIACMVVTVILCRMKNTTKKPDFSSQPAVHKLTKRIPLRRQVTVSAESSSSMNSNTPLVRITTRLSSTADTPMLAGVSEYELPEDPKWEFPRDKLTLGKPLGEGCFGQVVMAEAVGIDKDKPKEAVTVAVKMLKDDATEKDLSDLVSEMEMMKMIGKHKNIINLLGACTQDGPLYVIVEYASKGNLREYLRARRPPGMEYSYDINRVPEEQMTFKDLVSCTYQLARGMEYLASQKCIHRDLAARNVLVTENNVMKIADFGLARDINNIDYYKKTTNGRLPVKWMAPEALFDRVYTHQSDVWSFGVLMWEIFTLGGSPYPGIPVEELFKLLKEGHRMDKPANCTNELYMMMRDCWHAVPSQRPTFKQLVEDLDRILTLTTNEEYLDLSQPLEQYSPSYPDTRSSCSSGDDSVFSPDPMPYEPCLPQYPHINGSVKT

C[C@@H]1CCc2ncc(F)cc2[C@H]2CCCN2c2ccn3ncc(c3n2)C(=O)N1 [SELITRECTINIB]
IC50 [1]: ≤ 5 nM
Vd [2]: 0.5 L/kg
Activity [3]: Toxic
C0 [4]: 23.779 µM
Tmax [5]: 0.4 h
IC50 [6]: ≤ 5 nM

O=C1NC2(CC2)COc2ncc(F)cc2[C@H]2COCCN2c2ccn3ncc1c3n2
Activity [7]: 109%
Activity [8]: 16%
half-life [9]: 2.21 h
Activity [10]: 96%
Activity [11]: 93%
Vd [12]: 1.39 L/kg
bioavailability [13]: 61.9%
Activity [14]: 108%
Activity [15]: Toxic
Activity [16]: Active
Activity [17]: 91%
Activity [18]: Active
C0 at 24 h [19]: 3.51 µM
Activity [20]: 96%
Activity [21]: 103%
Activity [22]: 95%
Activity [23]: 112%
Activity [24]: 89%
Activity [25]: 94%
Cmax [26]: 6.63 µM
Activity [27]: 93%
